From patent publication US20060135522A1, “Tricyclic delta-opioid modulators” (priority 2004, published 2006) come the findings set out here.

One experiment deals with T1, delta opioid receptor (Rattus norvegicus, UniProt P33533).
T1 construct: from tissue; host or cells: forebrain of male Wistar rats (particulate membrane preparation)
Nature of the experiment: Rat Brain Delta Opioid Receptor Binding Assay. Here is the method:
Procedure: Male, Wistar rats (150-250 g, VAF, Charles River, Kingston, N.Y.) were killed by CO2, and their brains were removed and placed immediately in ice cold Tris HCl buffer (50 mM, pH 7.4). The forebrains were separated from the remainder of the brain by a coronal transection, beginning dorsally at the colliculi and passing ventrally through the midbrain-pontine junction. After dissection, the forebrains were homogenized in Tris buffer in a Teflon®-glass homogenizer. The homogenate was diluted to a concentration of 1 g of forebrain tissue per 80 mL Tris and centrifuged at 39,000×g for 10 min. The pellet was resuspended in the same volume of Tris buffer containing 5 mM MgCl2 with several brief pulses from a Polytron homogenizer. This particulate preparation was used for the delta opioid binding assays. Following incubation with the delta selective peptide ligand ˜4 nM [^3H]DPDPE or 0.15 nM [^3H]naltrindole at 25° C. for 2.5 h in a 96-well plate with total volume of […], the plate contents were filtered through Wallac filtermat B sheets on a Tomtec 96-well harvester. The filters were rinsed three times with 2 mL of 10 mM HEPES (pH 7.4), and dried in a 650 W microwave oven for 1.75 min twice. To each sample area 2×50 μL of Betaplate Scint scintillation fluid (LKB) was added and the radioactivity was quantified on a LKB (Wallac) 1205 BetaPlate liquid scintillation counter.
(§1) Analysis: The data from the scintillation counter was used to calculate either the % inhibition compared to control binding (when only a single concentration of test compound was evaluated) or a Ki value (when a range of concentrations was tested). Percent inhibition was calculated as: [(total dpm-test compound dpm)/(total dpm-nonspecific dpm)]*100. Kd and Ki values were calculated using GraphPad PRISM data analysis program.

The target of the next experiment is T2, mu opioid receptor (Rattus norvegicus, UniProt P33535).
T2 construct: from tissue; host or cells: forebrain of male Wistar rats (particulate membrane preparation)
Nature of the experiment: Rat Brain Mu Opioid Receptor Binding Assay. How it is done:
Procedure: Male, Wistar rats (150-250 g, VAF, Charles River, Kingston, N.Y.) were killed by CO2, and their brains were removed and placed immediately in ice cold Tris HCl buffer (50 mM, pH 7.4). The forebrains were separated from the remainder of the brain by a coronal transection, beginning dorsally at the colliculi and passing ventrally through the midbrain-pontine junction. After dissection, the forebrains were homogenized in Tris buffer in a Teflon®-glass homogenizer. The homogenate was diluted to a concentration of 1 g of forebrain tissue per 80 mL Tris and centrifuged at 39,000×g for 10 min. The pellet was resuspended in the same volume of Tris buffer containing 5 mM MgCl2 with several brief pulses from a Polytron homogenizer. This particulate preparation was used for the mu opioid binding assays.
as §1

Where [1] appears, read: rat forebrain membranes, [3H]DPDPE or [3H]naltrindole, 25° C., 2.5 h, read-out: delta (Ki).
Where [2] appears, read: rat forebrain membranes, [3H]DAMGO, 25° C., 2.5 h, read-out: mu (Ki).

SMILES strings stand for the structures. pKi: −log10 of the molar value. Read-outs that look alike come from different tables or passages of the source. Where only a bound is given, the exact number is not on record here.

T1 sequence (P33533 whole entry): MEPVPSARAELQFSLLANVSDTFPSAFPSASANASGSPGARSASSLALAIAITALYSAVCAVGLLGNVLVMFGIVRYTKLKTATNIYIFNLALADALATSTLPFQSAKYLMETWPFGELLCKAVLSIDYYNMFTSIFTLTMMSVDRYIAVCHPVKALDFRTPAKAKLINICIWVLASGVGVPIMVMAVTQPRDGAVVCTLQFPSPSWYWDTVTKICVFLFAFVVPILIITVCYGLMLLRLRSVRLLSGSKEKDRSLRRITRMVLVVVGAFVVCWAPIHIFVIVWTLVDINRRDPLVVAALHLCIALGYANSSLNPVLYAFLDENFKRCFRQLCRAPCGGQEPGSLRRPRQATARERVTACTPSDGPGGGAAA
T2 sequence (P33535 whole entry): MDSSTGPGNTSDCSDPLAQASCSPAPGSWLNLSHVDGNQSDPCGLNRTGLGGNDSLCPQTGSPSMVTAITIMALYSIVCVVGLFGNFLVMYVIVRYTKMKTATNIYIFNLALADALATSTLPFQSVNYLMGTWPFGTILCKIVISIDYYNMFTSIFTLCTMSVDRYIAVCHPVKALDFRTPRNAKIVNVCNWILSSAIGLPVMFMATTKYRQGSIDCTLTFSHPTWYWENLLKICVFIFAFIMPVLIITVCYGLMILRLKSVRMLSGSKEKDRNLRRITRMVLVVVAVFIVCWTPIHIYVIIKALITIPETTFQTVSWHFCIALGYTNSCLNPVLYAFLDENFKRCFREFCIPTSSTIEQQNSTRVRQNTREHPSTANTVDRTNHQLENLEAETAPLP

Turning to `CCN(CC)C(=O)c1ccc2c(c1)Oc1ccccc1C2C1CCN(C)CC1` (stereo not drawn) [16a, 9-(1-Methyl-piperidin-4-yl)-9H-xanthene-3-carboxylic acid diethylamide], the pKi on delta opioid receptor was 5.94; on mu opioid receptor, 4.45.

With `c1ccc(CN2CCC(C3c4ccccc4Oc4cc(-c5cccnc5)ccc43)CC2)cc1` (stereo not drawn) [7f, 3-[9-(1-Benzyl-piperidin-4-yl)-9H-xanthen-3-yl]-pyridine], the results for the pKi at delta opioid receptor and on mu opioid receptor were 6.11 and 5.51, respectively.

On to `Oc1cccc2c1Oc1cc(-c3cccnc3)ccc1C2C1CCNCC1` (stereo not drawn) [3i, 9-Piperidin-4-yl-6-pyridin-3-yl-9H-xanthen-4-ol], for which the pKi on delta opioid receptor was 6.62; at mu opioid receptor, under 5.00.

As for `c1cncc(-c2ccc3c(c2)Oc2ccccc2C3C2CCNCC2)c1` (stereo not drawn) [4f, 3-(9-Piperidin-4-yl-9H-xanthen-3-yl)-pyridine], the pKi at delta opioid receptor (setting [1]) was 6.79; on mu opioid receptor (setting [2]), 6.00.

`CC(=O)Nc1ccccc1-c1ccc2c(c1)Oc1ccccc1C2C1CCNCC1` (stereo not drawn) [2g, N-[2-(9-Piperidin-4-yl-9H-xanthen-3-yl)-phenyl]-acetamide]: the pKi was 5.99 on delta opioid receptor (setting [1]) and under 5.00 on mu opioid receptor (setting [2]).

As to `COc1cccc2c1Oc1cc(-c3ccncc3)ccc1C2C1CCNCC1` (stereo not drawn) [8b, 4-(5-Methoxy-9-piperidin-4-yl-9H-xanthen-3-yl)-pyridine], the pKi at delta opioid receptor (setting [1]) was 6.21; at mu opioid receptor (setting [2]) it was under 5.00.

Consider `CCN(CC)C(=O)c1ccc2c(c1)Oc1ccccc1C2C1CCN(Cc2cccs2)CC1` (stereo not drawn) [15a, 9-(1-Thiophen-2-ylmethyl-piperidin-4-yl)-9H-xanthene-3-carboxylic acid diethylamide], for which the pKi was 6.35 at delta opioid receptor and 5.38 on mu opioid receptor.

Consider `c1ccc2c(c1)Oc1cc(-c3nnn[nH]3)ccc1C2C1CCNCC1` (stereo not drawn) [3l, 4-[3-(1H-Tetrazol-5-yl)-9H-xanthen-9-yl]-piperidine], for which the pKi is 6.11 on delta opioid receptor (setting [1]) and under 5.00 at mu opioid receptor (setting [2]).

On to `c1ccc(CCN2CCC(C3c4ccccc4Oc4cc(-c5cccnc5)ccc43)CC2)cc1` (stereo not drawn) [8f, 3-[9-(1-Phenethyl-piperidin-4-yl)-9H-xanthen-3-yl]-pyridine], for which the pKi at delta opioid receptor (setting [1]) was 5.52; at mu opioid receptor (setting [2]) it was 6.04.

`CCN(CC)C(=O)c1ccc2c(c1)Oc1ccccc1C2C1CCN(Cc2ccoc2)CC1` (stereo not drawn) [9a, 9-(1-Furan-3-ylmethyl-piperidin-4-yl)-9H-xanthene-3-carboxylic acid diethylamide]: the pKi on delta opioid receptor was 6.85; on mu opioid receptor it was 4.29.

With `COc1cccc2c1Oc1cc(-c3ccccc3NC(C)=O)ccc1C2C1CCNCC1` (stereo not drawn) [9b, N-[2-(5-Methoxy-9-piperidin-4-yl-9H-xanthen-3-yl)-phenyl]-acetamide], the pKi is 6.12 at delta opioid receptor (setting [1]) and 5.35 at mu opioid receptor (setting [2]).

For the compound `c1cncc(-c2ccc3c(c2)Oc2ccccc2C3C2CCN(Cc3ccoc3)CC2)c1` (stereo not drawn) [5f, 3-[9-(1-Furan-3-ylmethyl-piperidin-4-yl)-9H-xanthen-3-yl]-pyridine], the pKi at delta opioid receptor (setting [1]) was 6.52; at mu opioid receptor (setting [2]) it was 5.50.

Consider `CCN(CC)C(=O)c1ccc2c(c1)Oc1c(Cl)cccc1C2C1CCNCC1` (stereo not drawn) [6k, 5-Chloro-9-piperidin-4-yl-9H-xanthene-3-carboxylic acid diethylamide], for which the pKi is 6.56 on delta opioid receptor (setting [1]) and 5.24 at mu opioid receptor (setting [2]).

For `CC(=O)Nc1ccccc1-c1ccc2c(c1)Oc1c(O)cccc1C2C1CCNCC1` (stereo not drawn) [4e, N-[2-(5-Hydroxy-9-piperidin-4-yl-9H-xanthen-3-yl)-phenyl]-acetamide], the pKi is 7.42 on delta opioid receptor and 6.54 at mu opioid receptor (setting [2]).

Consider `c1ccc(CN2CCC(C3c4ccccc4Oc4cc(-c5ccncc5)ccc43)CC2)nc1` (stereo not drawn) [4h, 4-[9-(1-Pyridin-2-ylmethyl-piperidin-4-yl)-9H-xanthen-3-yl]-pyridine], for which the pKi is 5.58 on delta opioid receptor and 5.69 on mu opioid receptor.

On to `O=c1[nH]c(-c2ccc3c(c2)Oc2ccccc2C3C2CCNCC2)no1` (stereo not drawn) [2m, 3-(9-Piperidin-4-yl-9H-xanthen-3-yl)-4H-[1,2,4]oxadiazol-5-one], for which the pKi at delta opioid receptor is 6.20; on mu opioid receptor, under 5.00.

`c1ccc2c(c1)Oc1cc(-c3nnn[nH]3)ccc1C2C1CCN(Cc2ccoc2)CC1` (stereo not drawn) [4l, 1-Furan-3-ylmethyl-4-[3-(1H-tetrazol-5-yl)-9H-xanthen-9-yl]-piperidine]: the pKi at delta opioid receptor (setting [1]) is 6.30; at mu opioid receptor (setting [2]), 5.20.

For `CCN(CC)C(=O)c1ccc2c(c1)Oc1ccccc1C2C1CCN(Cc2ncc[nH]2)CC1` (stereo not drawn) [13a, 9-[1-(1H-Imidazol-2-ylmethyl)-piperidin-4-yl]-9H-xanthene-3-carboxylic acid diethylamide], the pKi is 6.97 at delta opioid receptor and 5.77 at mu opioid receptor.

On to `CCN(CC)C(=O)c1ccc2c(c1)Oc1ccccc1C2C1CCN(CCc2ccccc2)CC1` (stereo not drawn) [12a, 9-(1-Phenethyl-piperidin-4-yl)-9H-xanthene-3-carboxylic acid diethylamide], for which the values for the pKi on delta opioid receptor and at mu opioid receptor were 5.42 and 6.01, respectively.

In the case of `CC(=O)Nc1ccccc1-c1ccc2c(c1)Oc1ccccc1C2C1CCN(Cc2ccccn2)CC1` (stereo not drawn) [4g, N-{2-[9-(1-Pyridin-2-ylmethyl-piperidin-4-yl)-9H-xanthen-3-yl]-phenyl}-acetamide], the pKi on delta opioid receptor (setting [1]) was 6.78; on mu opioid receptor (setting [2]) it was 5.16.

Take `O=C(c1ccc2c(c1)Oc1ccccc1C2C1CCNCC1)N1CC[C@H](O)C1` (stereo partly drawn) [4n, (3-(S)-Hydroxy-pyrrolidin-1-yl)-(9-piperidin-4-yl-9H-xanthen-3-yl)-methanone]: the pKi at delta opioid receptor (setting [1]) is 6.36; on mu opioid receptor (setting [2]) it was under 5.00.

Consider `O=C(c1ccc2c(c1)Oc1ccccc1C2C1CCN(CCc2ccccc2)CC1)N1CC[C@H](O)C1` (stereo partly drawn) [6n, (3-(S)-Hydroxy-pyrrolidin-1-yl)-[9-(1-phenethyl-piperidin-4-yl)-9H-xanthen-3-yl]-methanone], for which the results for the pKi on delta opioid receptor (setting [1]) and at mu opioid receptor (setting [2]) were 5.15 and 5.47, respectively.

As to `CCN(CC)C(=O)c1ccc2c(c1)Oc1ccccc1C2C1CCN(Cc2ccccc2)CC1` (stereo not drawn) [10a, 9-(1-Benzyl-piperidin-4-yl)-9H-xanthene-3-carboxylic acid diethylamide], the pKi is 7.12 on delta opioid receptor and 5.27 on mu opioid receptor.

In the case of `COc1cccc2c1Oc1cc(-c3cccnc3)ccc1C2C1CCNCC1` (stereo not drawn) [7b, 3-(5-Methoxy-9-piperidin-4-yl-9H-xanthen-3-yl)-pyridine], the pKi at delta opioid receptor (setting [1]) was 6.50; on mu opioid receptor (setting [2]), under 5.00.

Consider `CCN(CC)C(=N)c1ccc2c(c1)Oc1ccccc1C2C1CCNCC1` (stereo not drawn) [1p, N,N-Diethyl-9-piperidin-4-yl-9H-xanthene-3-carboxamidine], for which the values for the pKi at delta opioid receptor and at mu opioid receptor were 7.29 and under 5.00, respectively.

Regarding `CC(=O)Nc1ccccc1-c1ccc2c(c1)Oc1ccccc1C2C1CCN(Cc2ccoc2)CC1` (stereo not drawn) [3g, N-{2-[9-(1-Furan-3-ylmethyl-piperidin-4-yl)-9H-xanthen-3-yl]-phenyl}-acetamide], the pKi on delta opioid receptor was 7.00; at mu opioid receptor (setting [2]), 5.35.

On to `CC(=O)Nc1ccccc1-c1ccc2c(c1)Oc1ccccc1C2C1CCN(CCc2ccccc2)CC1` (stereo not drawn) [5g, N-{2-[9-(1-Phenethyl-piperidin-4-yl)-9H-xanthen-3-yl]-phenyl}-acetamide], for which the pKi at delta opioid receptor (setting [1]) is 5.34; on mu opioid receptor (setting [2]), 6.00.

As to `CCN(CC)C(=O)c1ccc2c(c1)Oc1ccccc1C2C1CCN(CC2CC2)CC1` (stereo not drawn) [14a, 9-(1-Cyclopropylmethyl-piperidin-4-yl)-9H-xanthene-3-carboxylic acid diethylamide], the pKi at delta opioid receptor (setting [1]) is 5.96; at mu opioid receptor (setting [2]), 5.16.

`O=C(c1ccc2c(c1)Oc1ccccc1C2C1CCN(Cc2ccoc2)CC1)N1CC[C@H](O)C1` (stereo partly drawn) [5n, [9-(1-Furan-3-ylmethyl-piperidin-4-yl)-9H-xanthen-3-yl]-(3-(S)-hydroxy-pyrrolidin-1-yl)-methanone]: the pKi at delta opioid receptor (setting [1]) was 6.75; at mu opioid receptor (setting [2]) it was under 5.00.

As to `c1ccc2c(c1)Oc1cc(-c3ccncc3)ccc1C2C1CCN(Cc2ccoc2)CC1` (stereo not drawn) [3h, 4-[9-(1-Furan-3-ylmethyl-piperidin-4-yl)-9H-xanthen-3-yl]-pyridine], the pKi at delta opioid receptor was 6.10; on mu opioid receptor, 5.37.

Consider `CCNC(=O)c1ccc2c(c1)Oc1c(O)cccc1C2C1CCNCC1` (stereo not drawn) [5d, 5-Hydroxy-9-piperidin-4-yl-9H-xanthene-3-carboxylic acid ethylamide], for which the figures for the pKi at delta opioid receptor (setting [1]) and on mu opioid receptor (setting [2]) were 6.68 and 6.06, respectively.

In the case of `N#Cc1ccc2c(c1)Oc1c(O)cccc1C2C1CCNCC1` (stereo not drawn) [5r, 5-Hydroxy-9-piperidin-4-yl-9H-xanthene-3-carbonitrile], on delta opioid receptor (setting [1]), the pKi is 6.78.
